Measured values as given in patent publication US20250085283A1, “METHOD FOR QUANTIFYING NICOTINAMIDE ADENINE DINUCLEOTIDE (NAD+) OR NICOTINAMIDE MONONUCLEOTIDE (NMN), AND KIT AND FILTER PAPER FOR PERFORMING THE METHOD” (Teijin Limited, priority 2022, published 2025).

Legend:
Assay type in all cases: physicochemical, human
[1] = Storage stability of extract solution (frozen storage 71 days); details: frozen 71 days, vs storage 0 days
Source text: A filter paper with added blood derived from a test subject is brought into contact with a solvent (extraction buffer) to obtain the solvent after contact (hereinafter may be abbreviated as extract solution), which storage stability was investigated.
A part of the blood extract solution (100% water) from the filter paper obtained and stored in Example 2 (15 days of chilled storage) and a part of the solution for LC-MS/MS measurement (water containing 67% acetonitrile) were frozen-stored. After 71 days of frozen storage, the supernatant of the former obtained by adding twice the amount of acetonitrile thereto, mixing and centrifuging (24,250×g, 10 minutes, 4° C.), and the supernatant of the latter obtained by centrifuging (24,250×g, 10 minutes, 4° C.) the solution after storage were both measured by LC-MS/MS under the same conditions as in Example 2.

[2] = Room temperature storage stability of NAD+ and NMN in blood spotted on filter paper (DBS, LC-MS/MS); details: for Storage stability (mean): vs storage 0 days
Description: (§1) A filter paper, to which blood derived from a test subject is added (i.e., corresponding to a filter paper in Step 1 of the present invention), was searched for the optimal one for quantifying NAD+ and NMN when the filter paper with added blood derived from the test subject is stored at room temperature for a certain period of time.
A part of the blood spotted-filter paper prepared in Example 2 was sealed in a moisture absorption standard pouch (Moisture absorption-kun (registered trademark)/Maruto Sangyo Co., Ltd.) and then stored at room temperature. After storage at room temperature for 2 days, 1 week (7 days), or 2 weeks (15 days), the blood-spotted areas were cut out and collected in a 2 mL microtube. After performing the same treatment as in Example 2, measurement by LC-MS/MS was performed under the same conditions as in Example 2.

[3] = Chilled storage stability of NAD+ and NMN in blood spotted on filter paper (DBS, LC-MS/MS); details: for Storage stability (mean): vs storage 0 days
Description: as §1, with “in the refrigerator” for “at room temperature”
From 5 subjects (adult men and women) per test, approximately 120 μL of blood (amount of 2 collection containers of the kit) was sampled by self-collection using an Micro Blood Collection Kit (Micro Blood Science Co., Ltd.), and was left to stand on ice until sample processing. The subjects were fasted on the morning of the sampling day, and samplings were performed around 9:00 am. The test was performed four times in total, with a total of 19 people performing evaluations, excluding one person due to insufficient sample blood volume.
The sampled blood was collected into 1.5 mL microtubes for each subject and mixed by gentle pipetting. Four types of filter papers (Whatman FTA DMPK-A Card/GE healthcare, QIAcard FTA DMPK-B Card/QIAGEN, QIAcard FTA DMPK-C Card/QIAGEN, Whatman 903 Protein saver card/Cytiva) were each spotted with 5 μL of blood (dropped/added) at multiple areas, sealed in a moisture absorption standard pouch (Moisture absorption-kun (registered trademark)/Maruto Sangyo Co., Ltd.), and stored in the refrigerator. Next, after chilled storing the blood-spotted filter paper for 2 days, 2 weeks (14 days or 15 days), or 1 month (30 days), the blood-spotted areas were cut out and collected in a 2 mL microtube. After adding 300 μL of a mixed aqueous solution of internal standard substances (NAD+-d4 and NMN-d4/Toronto Research Chemicals, Inc.) thereto and stirring using a vortex mixer, the mixture was mixed with a micromixer (TOMY MICRO TUBE MIXER MT-400, stirring speed 5) for 30 minutes at room temperature. The blood extract solution was dispensed by each 150 μL portion into a microtube, 300 μL of acetonitrile was added thereto, and the mixture was stirred using a vortex mixer, followed by centrifugation (24,250×g, 10 minutes, 4° C.). After centrifugation, 40 μL of the supernatant was dispensed into a vial and measured by LC-MS/MS.
In contrast, as a sample for initial values, 5 μL of blood was collected into a 2 mL microtube (no spotted filter paper), and 300 μL of a mixed aqueous solution of internal standard substances (NAD-d4 and NMN-d4/Toronto Research Chemicals, Inc.) was added thereto and stirred using a vortex mixer, and then the mixture was mixed using a micromixer (TOMY MICRO TUBE MIXER MT-400, stirring speed 5) for 30 minutes at room temperature. The blood extract solution was dispensed by each 150 μL portion into a microtube, 300 μL of acetonitrile was added thereto, and the mixture was stirred using a vortex mixer, followed by centrifugation (24,250×g, 10 minutes, 4° C.). After centrifugation, 40 μL of the supernatant was dispensed into a vial and measured by LC-MS/MS.

[4] = human blood on 903 card, room temperature storage for 2 weeks
[5] = human blood on 903 card, room temperature storage for 2 days
[6] = human blood on DMPK-A card, room temperature storage for 2 weeks
[7] = human blood on DMPK-A card, room temperature storage for 2 days
[8] = human blood on DMPK-B card, room temperature storage for 1 week
[9] = human blood on DMPK-B card, room temperature storage for 2 weeks
[10] = human blood on DMPK-B card, room temperature storage for 2 days
[11] = human blood on DMPK-C card, room temperature storage for 2 weeks
[12] = human blood on DMPK-C card, room temperature storage for 2 days
[13] = human blood on 903 card, chilled storage for 1 month
[14] = human blood on 903 card, chilled storage for 2 weeks
[15] = human blood on 903 card, chilled storage for 2 days
[16] = human blood on DMPK-A card, chilled storage for 1 month
[17] = human blood on DMPK-A card, chilled storage for 2 weeks
[18] = human blood on DMPK-A card, chilled storage for 2 days
[19] = human blood on DMPK-B card, chilled storage for 1 month
[20] = human blood on DMPK-B card, chilled storage for 2 weeks
[21] = human blood on DMPK-B card, chilled storage for 2 days
[22] = human blood on DMPK-C card, chilled storage for 1 month
[23] = human blood on DMPK-C card, chilled storage for 2 weeks
[24] = human blood on DMPK-C card, chilled storage for 2 days

## NC(=O)c1ccc[n+]([C@@H]2O[C@H](COP(=O)([O-])OP(=O)(O)OC[C@H]3O[C@@H](n4cnc5c(N)ncnc54)[C@H](O)[C@@H]3O)[C@@H](O)[C@H]2O)c1 [NAD+, nicotinamide adenine dinucleotide]
[1]; 903 card chilled 15 days, extract solution 100% water
  Storage stability (mean): 266.3%
[1]; 903 card chilled 15 days, extract solution with twice the amount of acetonitrile added
  Storage stability (mean): 92.1%
[1]; DMPK-A card chilled 15 days, extract solution 100% water
  Storage stability (mean): 145.8%
[1]; DMPK-A card chilled 15 days, extract solution with twice the amount of acetonitrile added
  Storage stability (mean): 89.6%
[1]; DMPK-B card chilled 15 days, extract solution 100% water
  Storage stability (mean): 93.1%
[1]; DMPK-B card chilled 15 days, extract solution with twice the amount of acetonitrile added
  Storage stability (mean): 100.0%
[1]; DMPK-C card chilled 15 days, extract solution 100% water
  Storage stability (mean): 200.6%
[1]; DMPK-C card chilled 15 days, extract solution with twice the amount of acetonitrile added
  Storage stability (mean): 73.6%
[2]; [4]
  Storage stability, Evaluation: Average (Average (≥50%))
  Storage stability (mean): 50.3%
[2]; [5]
  Storage stability, Evaluation: Average (Average (≥50%))
  Storage stability (mean): 66.2%
[2]; [6]
  Storage stability, Evaluation: Average: (Average (≥50%))
  Storage stability (mean): 51.6%
[2]; [7]
  Storage stability, Evaluation: Good: (Good (≥70%))
  Storage stability (mean): 71.6%
[2]; [8]
  Storage stability, Evaluation: Excellent: (Excellent (≥85%))
  Storage stability (mean): 87.2%
[2]; [9]
  Storage stability, Evaluation: Average: (Average (≥50%))
  Storage stability (mean): 67.6%
[2]; [10]
  Storage stability, Evaluation: Good: (Good (≥70%))
  Storage stability (mean): 82.0%
[2]; [11]
  Storage stability, Evaluation: Average (Average (≥50%))
  Storage stability (mean): 50.2%
[2]; [12]
  Storage stability, Evaluation: Average (Average (≥50%))
  Storage stability (mean): 55.9%
[3]; [13]
  Storage stability, Evaluation: Good: (Good (≥70%))
  Storage stability (mean): 82.6%
[3]; [14]
  Storage stability, Evaluation: Good: (Good (≥70%))
  Storage stability (mean): 77.2%
[3]; [15]
  Storage stability, Evaluation: Good: (Good (≥70%))
  Storage stability (mean): 74.1%
[3]; [16]
  Storage stability, Evaluation: Good: (Good (≥70%))
  Storage stability (mean): 71.8%
[3]; [17]
  Storage stability, Evaluation: Good: (Good (≥70%))
  Storage stability (mean): 79.1%
[3]; [18]
  Storage stability, Evaluation: Good: (Good (≥70%))
  Storage stability (mean): 81.5%
[3]; [19]
  Storage stability, Evaluation: Good: (Good (≥70%))
  Storage stability (mean): 79.8%
[3]; [20]
  Storage stability, Evaluation: Excellent: (Excellent (≥85%))
  Storage stability (mean): 87.8%
[3]; [21]
  Storage stability, Evaluation: Good: (Good (≥70%))
  Storage stability (mean): 80.7%
[3]; [22]
  Storage stability, Evaluation: Average: (Average (≥50%))
  Storage stability (mean): 54.3%
[3]; [23]
  Storage stability, Evaluation: Average: (Average (≥50%))
  Storage stability (mean): 66.6%
[3]; [24]
  Storage stability, Evaluation: Good: (Good (≥70%))
  Storage stability (mean): 70.1%

## NC(=O)c1ccc[n+]([C@@H]2O[C@H](COP(=O)([O-])O)[C@@H](O)[C@H]2O)c1 [NMN, nicotinamide mononucleotide]
[2]; [5]
  Storage stability, Evaluation: Good (Good (≥70%))
  Storage stability (mean): 79.8%
[2]; [6]
  Storage stability, Evaluation: Excellent: (Excellent (≥85%))
  Storage stability (mean): 124.2%
[2]; [7]
  Storage stability, Evaluation: Excellent: (Excellent (≥85%))
  Storage stability (mean): 122.7%
[2]; [8]
  Storage stability, Evaluation: Average: (Average (≥50%))
  Storage stability (mean): 69.1%
[2]; [9]
  Storage stability, Evaluation: Average: (Average (≥50%))
  Storage stability (mean): 66.6%
[2]; [10]
  Storage stability, Evaluation: Excellent: (Excellent (≥85%))
  Storage stability (mean): 96.5%
[3]; [13]
  Storage stability (mean): 56.3%
[3]; [14]
  Storage stability, Evaluation: Average: (Average (≥50%))
  Storage stability (mean): 64.5%
[3]; [15]
  Storage stability, Evaluation: Average: (Average (≥50%))
  Storage stability (mean): 60.1%
[3]; [16]
  Storage stability, Evaluation: Excellent: (Excellent (≥85%))
  Storage stability (mean): 99.9%
[3]; [17]
  Storage stability, Evaluation: Good: (Good (≥70%))
  Storage stability (mean): 80.6%
[3]; [18]
  Storage stability, Evaluation: Good: (Good (≥70%))
  Storage stability (mean): 73.1%
[3]; [19]
  Storage stability, Evaluation: Good: (Good (≥70%))
  Storage stability (mean): 78.6%
[3]; [20]
  Storage stability, Evaluation: Excellent: (Excellent (≥85%))
  Storage stability (mean): 93.6%
[3]; [21]
  Storage stability, Evaluation: Excellent: (Excellent (≥85%))
  Storage stability (mean): 95.4%
[3]; [23]
  Storage stability, Evaluation: Average: (Average (≥50%))
  Storage stability (mean): 52.9%
[3]; [24]
  Storage stability, Evaluation: Average: (Average (≥50%))
  Storage stability (mean): 68.4%
